Experimental findings from patent publication US12577228B2, “Dihydrocyclopenta-isoquinoline-sulfonamide derivatives compounds” (UCB Biopharma SRL, priority 2019, dated 2026) are described below.

The target of this experiment is T1, IgE-Tb / soluble IgE receptor FcεRIα with a Y131A mutation (Homo sapiens, UniProt P01854, N146Q/N252Q).
T1 construct: fused on or other part: Terbium chelate (LanthaScreen amine-reactive) on IgE-Fc; Alexa Fluor 488 hydrazide on the oxidised glycans of sFcεRIα; Both are labels and no part of the key
T1 sequence (P01854 104-427 N146Q/N252Q): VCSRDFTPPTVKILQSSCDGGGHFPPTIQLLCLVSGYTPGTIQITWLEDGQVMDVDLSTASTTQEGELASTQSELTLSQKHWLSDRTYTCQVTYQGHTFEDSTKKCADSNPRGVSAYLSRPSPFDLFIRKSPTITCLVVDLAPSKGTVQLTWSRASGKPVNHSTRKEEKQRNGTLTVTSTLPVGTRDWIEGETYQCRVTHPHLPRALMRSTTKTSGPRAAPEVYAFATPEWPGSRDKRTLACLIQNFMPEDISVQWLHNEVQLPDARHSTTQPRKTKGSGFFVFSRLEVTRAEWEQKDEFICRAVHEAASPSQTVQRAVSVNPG
T1 sequence (P12319 26-201 Y156A partner): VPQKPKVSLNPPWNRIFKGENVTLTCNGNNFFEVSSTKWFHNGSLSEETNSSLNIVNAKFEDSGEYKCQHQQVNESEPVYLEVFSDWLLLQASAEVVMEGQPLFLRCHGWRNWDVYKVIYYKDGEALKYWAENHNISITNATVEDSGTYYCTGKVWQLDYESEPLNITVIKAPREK
The experiment in a line: in vitro FRET assay: binding of IgE-Tb to receptor FcεRIα-Y131A-AF488 and its inhibition by compounds. To be noted: 5 nM IgE-Tb, 25 nM FcεRIα-Y131A-AF488, 2 hours at room temperature; read-out: FRET IC50 range.
One may read the IC50 as the concentration that inhibits the measured activity by half. On to `CC(C)CNS(=O)(=O)c1c2c(cc3cnc(C4CC4)cc13)C[C@H](Nc1nncn1-c1cccnc1)C2` (single isomer, unassigned) [Example 3, (7R*)-3-cyclopropyl-N-(2-methylpropyl)-7-[(4-pyridin-3-yl-1,2,4-triazol-3-yl)amino]-7,8-dihydro-6H-cyclopenta[g]isoquinoline-5-sulfonamide [* or S]], for which the IC50 was 10 to 50 nM.
For `CC(C)(F)CNS(=O)(=O)c1c2c(cc3cnc(C4CC4)cc13)C[C@@H](NC(=O)c1nccc3ccccc13)C2` [Example 135, N-[(7R)-3-cyclopropyl-5-[(2-fluoro-2-methylpropyl)sulfamoyl]-7,8-dihydro-6H-cyclopenta[g]isoquinolin-7-yl]isoquinoline-1-carboxamide] the value was 100 to 2000 nM.
For `CC(C)(F)CNS(=O)(=O)c1c2c(cc3cnc(C4CC4)cc13)CC(NC(=O)Cc1ccccc1)C2` (stereo not drawn) [Example 87, N-[3-cyclopropyl-5-[(2-fluoro-2-methylpropyl)sulfamoyl]-7,8-dihydro-6H-cyclopenta[g]isoquinolin-7-yl]-2-phenylacetamide] the value was 50 to 100 nM; for `CCNC(=O)NC1CCc2cc3cnc(C4CC4)cc3c(S(=O)(=O)NCC(C)C)c21` (stereo not drawn) [Example 46, 1-[3-cyclopropyl-5-(2-methylpropylsulfamoyl)-7,8-dihydro-6H-cyclopenta[g]isoquinolin-6-yl]-3-ethylurea], 100 to 2000 nM.
For `CC(C)(F)CNS(=O)(=O)c1c2c(cc3cnc(C4CC4)cc13)CC1(COC(=O)N1)C2` (stereo not drawn) [Example 49, 3′-cyclopropyl-N-(2-fluoro-2-methylpropyl)-2-oxospiro[1,3-oxazolidine-4,7′-6,8-dihydrocyclopenta[g]isoquinoline]-5′-sulfonamide] the value was 100 to 2000 nM; for `CC(C)(F)CNS(=O)(=O)c1c2c(cc3cnc(C4CC4)cc13)C[C@@H](Nc1cncc(Oc3cc[nH]c(=O)c3)c1)C2` [Example 75, (7R)-3-cyclopropyl-N-(2-fluoro-2-methylpropyl)-7-[[5-[(2-oxo-1H-pyridin-4-yl)oxy]pyridin-3-yl]amino]-7,8-dihydro-6H-cyclopenta[g]isoquinoline-5-sulfonamide], 10 to 50 nM; for `CCNC(=O)N1Cc2cc3cnc(C4CC4)cc3c(S(=O)(=O)NCC(C)C)c2C1` [Example 100, 7-cyclopropyl-N-ethyl-9-(2-methylpropylsulfamoyl)-1,3-dihydropyrrolo[3,4-g]isoquinoline-2-carboxamide], 100 to 2000 nM.
For the molecule `CC(C)(F)CNS(=O)(=O)c1c2c(cc3cnc(C4CC4)cc13)CC(Nc1nc3ccccc3[nH]1)C2` (stereo not drawn) [Example 20, 7-(1H-benzimidazol-2-ylamino)-3-cyclopropyl-N-(2-fluoro-2-methylpropyl)-7,8-dihydro-6H-cyclopenta[g]isoquinoline-5-sulfonamide], the IC50 fell in the range of 10 to 50 nM.
Then `CC(C)(F)CNS(=O)(=O)c1c2c(cc3cnc(C4CC4)cc13)C[C@@H](NC(=O)c1ccc3[nH]nnc3c1)C2` [Example 34, N-[(7R)-3-cyclopropyl-5-[(2-fluoro-2-methylpropyl)sulfamoyl]-7,8-dihydro-6H-cyclopenta[g]isoquinolin-7-yl]-1H-benzotriazole-5-carboxamide], with 10 to 50 nM; and `CCNC(=O)NC1Cc2cc3cnc(C4CC4)cc3c(S(=O)(=O)NCC(C)C)c2C1` (stereo not drawn) [Example 44, 1-[3-cyclopropyl-5-(2-methylpropylsulfamoyl)-7,8-dihydro-6H-cyclopenta[g]isoquinolin-7-yl]-3-ethylurea], with 10 to 50 nM; and `CC1(CNS(=O)(=O)c2c3c(cc4cnc(C5CC5)cc24)CC(C(=O)Nc2cccnc2)C3)COC1` (stereo not drawn) [Example 9, 3-cyclopropyl-5-[(3-methyloxetan-3-yl)methylsulfamoyl]-N-pyridin-3-yl-7,8-dihydro-6H-cyclopenta[g]isoquinoline-7-carboxamide], with 100 to 2000 nM.
For `CC(C)(F)CNS(=O)(=O)c1c2c(cc3cnc(C4CC4)cc13)C[C@@H](Nc1cnc(Cl)cc1-c1nnn[nH]1)C2` [Example 126, (7R)-7-[[6-chloro-4-(1H-tetrazol-5-yl)pyridin-3-yl]amino]-3-cyclopropyl-N-(2-fluoro-2-methylpropyl)-7,8-dihydro-6H-cyclopenta[g]isoquinoline-5-sulfonamide] the value was 100 to 2000 nM.
Then `CC(C)(F)CNS(=O)(=O)c1c2c(cc3cnc(C4CC4)cc13)CN(Cc1cccnc1)C2` [Example 91, 7-cyclopropyl-N-(2-fluoro-2-methyl-propyl)-2-(3-pyridylmethyl)-1,3-dihydropyrrolo[3,4-g]isoquinoline-9-sulfonamide; formic acid], with 100 to 2000 nM; and `Cn1nnc(-c2ccc(N[C@@H]3Cc4cc5cnc(C6CC6)cc5c(S(=O)(=O)NC5CC(F)C5)c4C3)cn2)n1` (stereo partly drawn) [Example 1, (7R)-3-cyclopropyl-N-(3-fluorocyclobutyl)-7-[[6-(2-methyltetrazol-5-yl)pyridin-3-yl]amino]-7,8-dihydro-6H-cyclopenta[g]isoquinoline-5-sulfonamide], with 1 to 10 nM; and `CC(C)(F)CNS(=O)(=O)c1c2c(cc3cnc(C4CC4)cc13)C[C@@H](Nc1ccc(C(N)=O)nc1)C2` [Example 11, 5-[[(7R)-3-cyclopropyl-5-[(2-fluoro-2-methylpropyl)sulfamoyl]-7,8-dihydro-6H-cyclopenta[g]isoquinolin-7-yl]amino]pyridine-2-carboxamide], with 10 to 50 nM.
For the molecule `CC(C)CNS(=O)(=O)c1c2c(cc3cnc(C4CC4)cc13)CC(Nc1nncn1CC1CC1)C2` (stereo not drawn) [Example 5, 3-cyclopropyl-7-[[4-(cyclopropylmethyl)-1,2,4-triazol-3-yl]amino]-N-(2-methylpropyl)-7,8-dihydro-6H-cyclopenta[g]isoquinoline-5-sulfonamide], the IC50 fell in the range of 10 to 50 nM.
On to `CC(C)CNS(=O)(=O)c1c2c(cc3cnc(C4CC4)cc13)OCO2` [Example 68, 7-cyclopropyl-N-(2-methylpropyl)-[1,3]dioxolo[4,5-g]isoquinoline-9-sulfonamide], for which the IC50 lay within 100 to 2000 nM.
Take `CC(C)(F)CNS(=O)(=O)c1c2c(cc3cnc(C4CC4)cc13)C[C@@H](Nc1cnc(Cl)cc1OCC1CC1)C2` [Example 119, (7R)-7-[[6-chloro-4-(cyclopropylmethoxy)pyridin-3-yl]amino]-3-cyclopropyl-N-(2-fluoro-2-methylpropyl)-7,8-dihydro-6H-cyclopenta[g]isoquinoline-5-sulfonamide]: the IC50 was 50 to 100 nM.
Then `CCNC(=O)CN1Cc2cc3cnc(C4CC4)cc3c(S(=O)(=O)NCC(C)C)c2C1` [Example 59, 2-[7-cyclopropyl-9-(2-methylpropylsulfamoyl)-1,3-dihydropyrrolo[3,4-g]isoquinolin-2-yl]-N-ethylacetamide], with 100 to 2000 nM; and `CC(C)CNS(=O)(=O)c1c2c(cc3cnc(C4CC4)cc13)CC(NC1=CC(=O)CC1)C2` (stereo not drawn) [Example 4, 3-cyclopropyl-N-(2-methylpropyl)-7-[(3-oxocyclopenten-1-yl)amino]-7,8-dihydro-6H-cyclopenta[g]isoquinoline-5-sulfonamide], with 10 to 50 nM; and `CC(C)(F)CNS(=O)(=O)c1c2c(cc3cnc(C4CC4)cc13)CC(Nc1ccc(N3CC(C)(O)C3)nc1)C2` (stereo not drawn) [Example 27, 3-cyclopropyl-N-(2-fluoro-2-methylpropyl)-7-[[6-(3-hydroxy-3-methylazetidin-1-yl)pyridin-3-yl]amino]-7,8-dihydro-6H-cyclopenta[g]isoquinoline-5-sulfonamide], with 100 to 2000 nM.
Then `CC(C)(F)CNS(=O)(=O)c1c2c(cc3cnc(C4CC4)cc13)C[C@@H](Nc1ccc(Cl)nc1)C2` [Example 32, (7R)-7-[(6-chloropyridin-3-yl)amino]-3-cyclopropyl-N-(2-fluoro-2-methylpropyl)-7,8-dihydro-6H-cyclopenta[g]isoquinoline-5-sulfonamide], with 10 to 50 nM; and `Cc1ccc(Oc2cncc(N[C@@H]3Cc4cc5cnc(C6CC6)cc5c(S(=O)(=O)NCC(C)(C)F)c4C3)c2)cn1` [Example 10, (7R)-3-cyclopropyl-N-(2-fluoro-2-methylpropyl)-7-[[5-(6-methylpyridin-3-yl)oxypyridin-3-yl]amino]-7,8-dihydro-6H-cyclopenta[g]isoquinoline-5-sulfonamide], with 1 to 10 nM.
For `CC(C)(F)CNS(=O)(=O)c1c2c(cc3cnc(C4CC4)cc13)C[C@@H](NC(=O)c1ccc3c(c1)CN(C(=O)OC(C)(C)C)C3)C2` [Example 136, tert-butyl 5-[[(7R)-3-cyclopropyl-5-[(2-fluoro-2-methylpropyl)sulfamoyl]-7,8-dihydro-6H-cyclopenta[g]isoquinolin-7-yl]carbamoyl]-1,3-dihydroisoindole-2-carboxylate] the value was 10 to 50 nM.
In the case of `CC(C)(F)CNS(=O)(=O)c1c2c(cc3cnc(C4CC4)cc13)CC(CO)(Nc1nncn1-c1cccnc1)C2` (stereo not drawn) [Example 50, 3-cyclopropyl-N-(2-fluoro-2-methylpropyl)-7-(hydroxymethyl)-7-[(4-pyridin-3-yl-1,2,4-triazol-3-yl)amino]-6,8-dihydrocyclopenta[g]isoquinoline-5-sulfonamide], the IC50 was 100 to 2000 nM.
For `Cc1nnc(-c2ccc(N[C@@H]3Cc4cc5cnc(C6CC6)cc5c(S(=O)(=O)NCC(C)(C)F)c4C3)cc2)o1` [Example 70, (7R)-3-cyclopropyl-N-(2-fluoro-2-methylpropyl)-7-[4-(5-methyl-1,3,4-oxadiazol-2-yl)anilino]-7,8-dihydro-6H-cyclopenta[g]isoquinoline-5-sulfonamide] the value was 10 to 50 nM.
`COc1ccc2c(C(=O)N[C@@H]3Cc4cc5cnc(C6CC6)cc5c(S(=O)(=O)NCC(C)(C)F)c4C3)c[nH]c2c1` [Example 133, N-[(7R)-3-cyclopropyl-5-[(2-fluoro-2-methylpropyl)sulfamoyl]-7,8-dihydro-6H-cyclopenta[g]isoquinolin-7-yl]-6-methoxy-1H-indole-3-carboxamide]: the half-maximal inhibitory concentration (IC50) is 10 to 50 nM.
